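Cells were grown in 96-well plates and exposed to each compound for 48 hours at five concentrations; endpoints were interpolated linearly between bracketing concentrations, or set to the highest concentration if not reached. Here, GI50 denotes the concentration required for 50% inhibition of growth.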 Activity calls are given as the source filed them. Cut-off read from the data, not from the text of the source: active = GI50 up to about 1.1 µM and inactive = higher.
Columns and labels:
Experiment in all cases: NCI anticancer screen, dose series, 48 h
786-0 = tested on: 786-0
A498 = tested on: A498
A549 = tested on: A549
ACHN = tested on: ACHN
BT-549 = tested on: BT-549
CAKI-1 = tested on: CAKI-1
CCRF-CEM = tested on: CCRF-CEM
COLO 205 = tested on: COLO 205
DU-145 = tested on: DU-145
EKVX = tested on: EKVX
HCC 2998 = tested on: HCC 2998
HCT-116 = tested on: HCT-116
HCT-15 = tested on: HCT-15
HL-60 = tested on: HL-60
HOP-62 = tested on: HOP-62
HOP-92 = tested on: HOP-92
HT-29 = tested on: HT-29
Hs-578T = tested on: Hs-578T
IGROV-1 = tested on: IGROV-1
K562 = tested on: K562
KM12 = tested on: KM12
LOX IMVI = tested on: LOX IMVI
M14 = tested on: M14
MCF7 = tested on: MCF7
MDA-MB-231 = tested on: MDA-MB-231
MDA-MB-435 = tested on: MDA-MB-435
MDA-N = tested on: MDA-N
MOLT-4 = tested on: MOLT-4
Malme-3M = tested on: Malme-3M
NCI-H226 = tested on: NCI-H226
NCI-H23 = tested on: NCI-H23
NCI-H460 = tested on: NCI-H460
NCI-H522 = tested on: NCI-H522
NCI/ADR-RES = tested on: NCI/ADR-RES
OVCAR-3 = tested on: OVCAR-3
OVCAR-4 = tested on: OVCAR-4
OVCAR-5 = tested on: OVCAR-5
OVCAR-8 = tested on: OVCAR-8
PC-3 = tested on: PC-3
RPMI-8226 = tested on: RPMI-8226
RXF 393 = tested on: RXF 393
SF-268 = tested on: SF-268
SF-295 = tested on: SF-295
SF-539 = tested on: SF-539
SK-MEL-28 = tested on: SK-MEL-28
SK-MEL-2 = tested on: SK-MEL-2
SK-MEL-5 = tested on: SK-MEL-5
SK-OV-3 = tested on: SK-OV-3
SN12C = tested on: SN12C
SNB-19 = tested on: SNB-19
SNB-75 = tested on: SNB-75
SR = tested on: SR
SW-620 = tested on: SW-620
T47D = tested on: T47D
TK-10 = tested on: TK-10
U-251 = tested on: U-251
UACC-257 = tested on: UACC-257
UACC-62 = tested on: UACC-62
UO-31 = tested on: UO-31

With `CC1(C)CCCC2OC2CCC(C)(C)C1=O` (centres undefined) the GI50 (786-0) was > 100 µM (inactive), the GI50 (A498) was > 100 µM (inactive) and the GI50 (A549) was > 100 µM (inactive). For the same compound, the GI50 (ACHN) was > 100 µM (inactive), the GI50 (BT-549) was > 100 µM (inactive) and the GI50 (CAKI-1) was > 100 µM (inactive). For the same compound, the GI50 (CCRF-CEM) was > 100 µM (inactive), the GI50 (COLO 205) was > 100 µM (inactive) and the GI50 (DU-145) was > 100 µM (inactive). The GI50 (EKVX) was > 100 µM (inactive), the GI50 (HCC 2998) was > 100 µM (inactive) and the GI50 (HCT-116) was > 100 µM (inactive). The GI50 (HCT-15) was > 100 µM, the GI50 (HL-60) was > 100 µM (inactive) and the GI50 (HOP-62) was > 100 µM (inactive). For the same compound, the GI50 (HOP-92) was > 100 µM (inactive), the GI50 (HT-29) was > 100 µM (inactive) and the GI50 (Hs-578T) was > 100 µM (inactive). For the same compound, the GI50 (IGROV-1) was > 100 µM (inactive), the GI50 (K562) was > 100 µM (inactive) and the GI50 (KM12) was > 100 µM (inactive). For the same compound, the GI50 (LOX IMVI) was > 100 µM (inactive), the GI50 (M14) was > 100 µM (inactive) and the GI50 (MCF7) was > 100 µM (inactive). The GI50 (MDA-MB-231) was > 100 µM (inactive), the GI50 (MDA-MB-435) was > 100 µM (inactive) and the GI50 (MDA-N) was > 100 µM (inactive). The GI50 (MOLT-4) was > 100 µM (inactive), the GI50 (Malme-3M) was > 100 µM (inactive) and the GI50 (NCI-H226) was > 100 µM (inactive). The GI50 (NCI-H23) was > 100 µM (inactive), the GI50 (NCI-H460) was > 100 µM (inactive) and the GI50 (NCI-H522) was > 100 µM (inactive). For the same compound, the GI50 (NCI/ADR-RES) was > 100 µM (inactive), the GI50 (OVCAR-3) was > 100 µM (inactive) and the GI50 (OVCAR-4) was > 100 µM (inactive). For the same compound, the GI50 (OVCAR-5) was > 100 µM (inactive), the GI50 (OVCAR-8) was > 100 µM (inactive) and the GI50 (PC-3) was > 100 µM (inactive). The GI50 (RPMI-8226) was > 100 µM (inactive), the GI50 (RXF 393) was > 100 µM (inactive) and the GI50 (SF-268) was > 100 µM (inactive). The GI50 (SF-295) was > 100 µM (inactive), the GI50 (SF-539) was > 100 µM (inactive) and the GI50 (SK-MEL-28) was > 100 µM (inactive). The GI50 (SK-MEL-2) was > 100 µM (inactive), the GI50 (SK-MEL-5) was > 100 µM (inactive) and the GI50 (SK-OV-3) was > 100 µM (inactive). The GI50 (SN12C) was > 100 µM (inactive), the GI50 (SNB-19) was > 100 µM (inactive) and the GI50 (SNB-75) was > 100 µM (inactive). For the same compound, the GI50 (SR) was > 100 µM (inactive), the GI50 (SW-620) was > 100 µM (inactive) and the GI50 (T47D) was > 100 µM (inactive). For the same compound, the GI50 (TK-10) was > 100 µM (inactive), the GI50 (U-251) was > 100 µM (inactive) and the GI50 (UACC-257) was > 100 µM (inactive). The GI50 (UACC-62) was > 100 µM (inactive) and the GI50 (UO-31) was > 100 µM (inactive).
